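Values below derive from 48-hour exposures of cells grown in 96-well plates, with endpoints linearly interpolated between the two concentrations bracketing the appropriate inhibition level. The concentration for 50% growth inhibition is given as GI50. TGI: total growth inhibition.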
Tests used:
Assay in all cases: NCI anticancer screen, dose series, 48 h; in the data active = GI50 below about 0.43 µM; inactive = the rest
HT29 colon = test system: HT29 colon
SR leukemia = test system: SR leukemia
HOP-92 NSCLC = test system: HOP-92 NSCLC
NCI-H522 lung = test system: NCI-H522 lung
OVCAR-4 ovarian = test system: OVCAR-4 ovarian
IGROV1 ovarian = test system: IGROV1 ovarian
A549 NSCLC = test system: A549 NSCLC
BT-549 breast = test system: BT-549 breast
RPMI-8226 leukemia = test system: RPMI-8226 leukemia
OVCAR-3 ovarian = test system: OVCAR-3 ovarian
MALME-3M melanoma = test system: MALME-3M melanoma
HCT-15 colon = test system: HCT-15 colon
MCF7 breast = test system: MCF7 breast
ACHN renal = test system: ACHN renal
LOX IMVI melanoma = test system: LOX IMVI melanoma
U251 CNS = test system: U251 CNS
HCT-116 colon = test system: HCT-116 colon
K-562 leukemia = test system: K-562 leukemia
HS 578T breast = test system: HS 578T breast
CCRF-CEM leukemia = test system: CCRF-CEM leukemia
SF-539 CNS = test system: SF-539 CNS
SF-295 CNS = test system: SF-295 CNS
SW-620 colon = test system: SW-620 colon
SNB-19 CNS = test system: SNB-19 CNS
HCC-2998 colon = test system: HCC-2998 colon
SNB-75 CNS = test system: SNB-75 CNS
MDA-MB-435 = test system: MDA-MB-435
UO-31 renal = test system: UO-31 renal
DU-145 prostate = test system: DU-145 prostate

COC(=O)c1cc(NC(=O)CN(CCN(CC(=O)O)CC(=O)Nc2ccc(O)c(C(=O)OC)c2)CC(=O)O)ccc1O
48.7 µM: TGI (SR leukemia)
> 100 µM: TGI (HT29 colon) | TGI (HOP-92 NSCLC) | TGI (NCI-H522 lung) | TGI (OVCAR-4 ovarian) | TGI (IGROV1 ovarian) | TGI (A549 NSCLC) | TGI (BT-549 breast) | TGI (RPMI-8226 leukemia) | TGI (OVCAR-3 ovarian) | TGI (MALME-3M melanoma) | TGI (HCT-15 colon) | TGI (MCF7 breast) | TGI (ACHN renal) | TGI (LOX IMVI melanoma) | TGI (U251 CNS) | TGI (HCT-116 colon) | TGI (K-562 leukemia) | TGI (HS 578T breast) | TGI (CCRF-CEM leukemia) | TGI (SF-539 CNS) | TGI (SF-295 CNS) | TGI (SW-620 colon) | TGI (SNB-19 CNS) | TGI (HCC-2998 colon) | TGI (SNB-75 CNS) | TGI (MDA-MB-435) | TGI (UO-31 renal)
inactive: GI50 (HT29 colon) > 100 µM | GI50 (SR leukemia) 6.06 µM | GI50 (HOP-92 NSCLC) > 100 µM | GI50 (NCI-H522 lung) 46.4 µM | GI50 (OVCAR-4 ovarian) > 100 µM | GI50 (IGROV1 ovarian) > 100 µM | GI50 (A549 NSCLC) 64.8 µM | GI50 (BT-549 breast) 52.1 µM | GI50 (RPMI-8226 leukemia) > 100 µM | GI50 (OVCAR-3 ovarian) > 100 µM | GI50 (MALME-3M melanoma) > 100 µM | GI50 (HCT-15 colon) > 100 µM | GI50 (MCF7 breast) 33.5 µM | GI50 (ACHN renal) 36.7 µM | GI50 (LOX IMVI melanoma) 38.5 µM | GI50 (U251 CNS) 43.8 µM | GI50 (HCT-116 colon) 43.9 µM | GI50 (K-562 leukemia) 96.4 µM | GI50 (HS 578T breast) > 100 µM | GI50 (CCRF-CEM leukemia) 30.9 µM | GI50 (SF-539 CNS) 29.4 µM | GI50 (SF-295 CNS) 25.8 µM | GI50 (SW-620 colon) 74.9 µM | GI50 (SNB-19 CNS) 41.9 µM | GI50 (HCC-2998 colon) 97.4 µM | GI50 (SNB-75 CNS) 55.3 µM | GI50 (MDA-MB-435) > 100 µM | GI50 (UO-31 renal) 42.7 µM | GI50 (DU-145 prostate) 31.9 µM
